Reference: ChEMBL document CHEMBL1201862, “PubChem BioAssay data set” (2004)
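1) Cells in 96-well plates. 2) Compound, 48 h, 5 concentrations. 3) Linear interpolation between surrounding doses. 4) Unreached endpoint = highest concentration. Here, GI50 denotes the concentration required for 50% inhibition of growth.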 The source made the active and inactive calls. Rule as the data show it: active = GI50 up to about 1.1 µM and inactive = higher.

Columns and labels:
Experiment in all cases: inhibition of tumour cell growth, NCI panel, 48 h
SF-539 = system: SF-539
HCT-15 = system: HCT-15
NCI/ADR-RES = system: NCI/ADR-RES
UACC-257 = system: UACC-257
MOLT-4 = system: MOLT-4
OVCAR-4 = system: OVCAR-4
ACHN = system: ACHN
EKVX = system: EKVX
HCC 2998 = system: HCC 2998
RXF 393 = system: RXF 393
SNB-19 = system: SNB-19
CAKI-1 = system: CAKI-1
BT-549 = system: BT-549
NCI-H460 = system: NCI-H460
M14 = system: M14
OVCAR-8 = system: OVCAR-8
TK-10 = system: TK-10
NCI-H522 = system: NCI-H522
T47D = system: T47D
HL-60 = system: HL-60

SMILES | GI50 (SF-539) | GI50 (HCT-15) | GI50 (NCI/ADR-RES) | GI50 (UACC-257) | GI50 (MOLT-4) | GI50 (OVCAR-4) | GI50 (ACHN) | GI50 (EKVX) | GI50 (HCC 2998) | GI50 (RXF 393) | GI50 (SNB-19) | GI50 (CAKI-1) | GI50 (BT-549) | GI50 (NCI-H460) | GI50 (M14) | GI50 (OVCAR-8) | GI50 (TK-10) | GI50 (NCI-H522) | GI50 (T47D) | GI50 (HL-60)
CC(=O)Nc1ccc(/C=C/C(=O)N2CC(CCl)c3c2cc(N)c2ccccc32)cc1 (stereo not drawn) | < 0.005 µM (active) | < 0.005 µM | < 0.005 µM (active) | 0.0156 µM (active) | < 0.005 µM (active) | 0.0226 µM (active) | < 0.005 µM (active) | 0.01 µM (active) | < 0.005 µM (active) | < 0.005 µM (active) | < 0.005 µM (active) | < 0.005 µM (active) | 0.00624 µM (active) | < 0.005 µM (active) | < 0.005 µM (active) | < 0.005 µM (active) | < 0.005 µM (active) | < 0.005 µM (active) | 0.01 µM (active) | 
O=C1N2CCN=C2c2ccccc2C1(O)c1ccccc1 (stereo not drawn) | > 100 µM (inactive) | > 100 µM | > 100 µM (inactive) | > 100 µM (inactive) | > 100 µM (inactive) | > 100 µM (inactive) | > 100 µM (inactive) | > 100 µM (inactive) | > 100 µM (inactive) |  | > 100 µM (inactive) | > 100 µM (inactive) | > 100 µM (inactive) | > 100 µM (inactive) | > 100 µM (inactive) | > 100 µM (inactive) | > 100 µM (inactive) |  | > 100 µM (inactive) | > 100 µM (inactive)
Fc1ccc(C(OCCN2CCC3CCC(C2)N3C/C=C/c2cccnc2)c2ccc(F)cc2)cc1 (stereo not drawn) | 11.5 µM (inactive) | 10 µM | 11.3 µM (inactive) | 3.78 µM (inactive) | 2.48 µM (inactive) | 12.6 µM (inactive) | 14.2 µM (inactive) | 12.2 µM (inactive) | 4.79 µM (inactive) | 5.28 µM (inactive) | 15.2 µM (inactive) | 12 µM (inactive) | 13.6 µM (inactive) | 12.7 µM (inactive) | 2.53 µM (inactive) | 13 µM (inactive) | 11.5 µM (inactive) | 13.6 µM (inactive) | 12.6 µM (inactive) | 
Cc1ccc(S(=O)(=O)NC(=O)NC(Cc2ccccc2)C(=O)O)cc1 (stereo not drawn) | > 100 µM (inactive) | > 100 µM | > 100 µM (inactive) | > 100 µM (inactive) | > 100 µM (inactive) | > 100 µM (inactive) | > 100 µM (inactive) |  |  | > 100 µM (inactive) | > 100 µM (inactive) |  | > 100 µM (inactive) | > 100 µM (inactive) | > 100 µM (inactive) | > 100 µM (inactive) | > 100 µM (inactive) | > 100 µM (inactive) | > 100 µM (inactive) | > 100 µM (inactive)
O=C(CCCCCCCCC(=O)NN1C(=O)/C(=C\c2ccc(O)c(O)c2)SC1c1c(O)ccc2ccccc12)NN1C(=O)C(=Cc2ccc(O)c(O)c2)SC1c1c(O)ccc2ccccc12 (stereo not drawn) | 8.45 µM (inactive) | 4.66 µM | 10.6 µM (inactive) | 10.7 µM (inactive) | 2.48 µM (inactive) | 5.16 µM (inactive) | 4.8 µM (inactive) | 7.59 µM (inactive) | 24.5 µM (inactive) | 10 µM (inactive) | 22.6 µM (inactive) | 6.01 µM (inactive) | > 36.9 µM (inactive) | 4.62 µM (inactive) | 5.02 µM (inactive) | 4.49 µM (inactive) | > 50.7 µM (inactive) | 5.75 µM (inactive) | 11.3 µM (inactive) | 
C[C@H]1S[C@H](c2c(F)cccc2F)n2c1nc1ccccc12 |  | 47 µM | 44.2 µM (inactive) | 50.2 µM (inactive) | 40.6 µM (inactive) | 45.5 µM (inactive) | 55.1 µM (inactive) | 66.2 µM (inactive) | 64.7 µM (inactive) | 28.6 µM (inactive) | > 100 µM (inactive) | 74 µM (inactive) | 52.8 µM (inactive) | 25.4 µM (inactive) | 38.5 µM (inactive) | 69 µM (inactive) | > 100 µM (inactive) |  | 29.2 µM (inactive) | 
NS(=O)(=O)c1ccc(NCc2nc3ccccc3[nH]2)cc1 | > 100 µM (inactive) | > 100 µM | > 100 µM (inactive) | > 100 µM (inactive) |  | > 100 µM (inactive) | > 100 µM (inactive) | > 100 µM (inactive) |  | > 100 µM (inactive) | > 100 µM (inactive) | > 100 µM (inactive) | > 100 µM (inactive) | > 100 µM (inactive) | > 100 µM (inactive) | > 100 µM (inactive) | > 100 µM (inactive) | > 100 µM (inactive) | > 100 µM (inactive) | 
N#CC1C(=O)Nc2sc(C(=O)c3ccc(Br)cc3)c(N)c2C12CCCCC2 (stereo not drawn) | 17.2 µM (inactive) | 16 µM | 24.9 µM (inactive) | 23.6 µM (inactive) | 18.5 µM (inactive) | 18 µM (inactive) | 35.6 µM (inactive) | 17.7 µM (inactive) | 22.5 µM (inactive) | 7.96 µM (inactive) | 37.9 µM (inactive) | 27.9 µM (inactive) | 27.9 µM (inactive) | 28.2 µM (inactive) | 13.3 µM (inactive) | 39.8 µM (inactive) | 33.2 µM (inactive) | 18.3 µM (inactive) | 12.3 µM (inactive) | 
COc1cc(/C=C2/CCS(=O)(=O)c3ccc(C)cc3C2=O)cc(OC)c1OC | 2.59 µM (inactive) | 4.59 µM | 3.14 µM (inactive) | 4.15 µM (inactive) | 3.62 µM (inactive) | 9.38 µM (inactive) | 3.66 µM (inactive) | 12.1 µM (inactive) | 4.34 µM (inactive) |  | 4.1 µM (inactive) | 4.65 µM (inactive) | 3.52 µM (inactive) | 3.23 µM (inactive) | 5.33 µM (inactive) | 2.7 µM (inactive) | 5.37 µM (inactive) | 3.39 µM (inactive) | 3.6 µM (inactive) | 1.41 µM (inactive)
NN/C(=N\S(=O)(=O)c1cc(S(=O)(=O)c2ccccc2)cs1)Nc1ccc(Cl)cc1 | 42.7 µM (inactive) | 34.3 µM | 29.6 µM (inactive) | 19 µM (inactive) | 18.6 µM (inactive) | 20 µM (inactive) | 27.5 µM (inactive) | 13.6 µM (inactive) |  | 14.9 µM (inactive) | 42.1 µM (inactive) | 34.1 µM (inactive) | 31.2 µM (inactive) | 22.5 µM (inactive) | 22 µM (inactive) | 32.4 µM (inactive) | 24.8 µM (inactive) | 13.2 µM (inactive) | 13.8 µM (inactive) | 4.58 µM (inactive)
COc1cccc2c(Nc3ccc(S(=O)(=O)N=C(N)N)cc3)c3ccc([N+](=O)[O-])cc3nc12 | 4.85 µM (inactive) | 30 µM | > 100 µM (inactive) | 17.4 µM (inactive) | 2.29 µM (inactive) | 37.7 µM (inactive) | 10.2 µM (inactive) | 26.2 µM (inactive) | 3.23 µM (inactive) | 40.4 µM (inactive) | 12.6 µM (inactive) | 5.57 µM (inactive) | 13.6 µM (inactive) | 4.32 µM (inactive) | 16.3 µM (inactive) | 15.7 µM (inactive) | 25.6 µM (inactive) | 6.71 µM (inactive) | 1.35 µM (inactive) | 
CC1(C)CCc2c(cc3c(c2O)CCC(C)(C)O3)O1 | > 100 µM (inactive) | 64.7 µM | > 100 µM (inactive) | > 100 µM (inactive) | 62.4 µM (inactive) | > 100 µM (inactive) | > 100 µM (inactive) | > 100 µM (inactive) | > 100 µM (inactive) |  | > 100 µM (inactive) | > 100 µM (inactive) | > 100 µM (inactive) | 57 µM (inactive) | > 100 µM (inactive) | > 100 µM (inactive) | > 100 µM (inactive) | 61.1 µM (inactive) | 41.8 µM (inactive) | 27.3 µM (inactive)
CCOP(=O)(OCC)/C(C#N)=C/c1cccn1Cc1ccccc1 | 18.5 µM (inactive) | 29 µM | 26.2 µM (inactive) | 39.5 µM (inactive) | 17.2 µM (inactive) |  | 34.4 µM (inactive) | 38 µM (inactive) | 35.3 µM (inactive) | 30.8 µM (inactive) | 44.4 µM (inactive) | 42.2 µM (inactive) | 32.3 µM (inactive) | 31.9 µM (inactive) | 48.1 µM (inactive) | 33.6 µM (inactive) | 40.9 µM (inactive) | 23.8 µM (inactive) | 16.9 µM (inactive) | 
O=c1c2c3c(sc2nc2n1N=CN(c1ccc(Cl)cc1)C2)CCCC3 |  | 19.7 µM | 74.8 µM (inactive) | 55.7 µM (inactive) | 17.9 µM (inactive) | 52.6 µM (inactive) | 75 µM (inactive) | 93.8 µM (inactive) | 2.26 µM (inactive) | 12.3 µM (inactive) | > 100 µM (inactive) | 23.8 µM (inactive) | > 100 µM (inactive) | 38 µM (inactive) | > 100 µM (inactive) | 83.8 µM (inactive) | > 100 µM (inactive) | 10.5 µM (inactive) | 2.21 µM (inactive) | 
COC1=C2C=[N+](C)C3C(=C2C=CC1OC)Cc1cc2c(cc13)OCO2 (stereo not drawn) | 11.8 µM (inactive) | 17.7 µM | 29.9 µM (inactive) | 11.4 µM (inactive) | 3.77 µM (inactive) | 10.5 µM (inactive) |  | 17.9 µM (inactive) |  |  | 5.28 µM (inactive) | 15.8 µM (inactive) | 12.7 µM (inactive) |  | 15.5 µM (inactive) | 22 µM (inactive) | 15.5 µM (inactive) | 4.32 µM (inactive) | 5.02 µM (inactive) | 4.61 µM (inactive)
